Test results from ChEMBL document CHEMBL4354794, “Potential Anticancer Agents Characterized from Selected Tropical Plants” (J Nat Prod, 2019).

Key:
[1] = test system: HT-29; experiment: Antiproliferative activity against human HT-29 cells assessed as reduction in cell viability; type: functional, cell-based
[2] = test system: HT-29; experiment: Antiproliferative activity against human HT-29 cells assessed as reduction in cell viability after 3 days by SRB assay; type: functional, cell-based; details: HT-29, 72 h
[3] = test system: NCI-H1650; experiment: Antiproliferative activity against human NCI-H1650 cells assessed as reduction in cell viability after 72 hrs by CellTiter-Glo assay; type: functional, cell-based; details: NCI-H1650, 72 h
[4] = test system: A549; experiment: Antiproliferative activity against human A549 cells assessed as reduction in cell viability after 48 hrs by MTT assay; type: functional, cell-based; details: A549, 48 h
[5] = test system: BGC-823; experiment: Antiproliferative activity against human BGC823 cells assessed as reduction in cell viability after 48 hrs by MTT assay; type: functional, cell-based; details: BGC-823, 48 h
[6] = target: Trypsin (Homo sapiens, UniProt P07477+P07478+P35030); experiment: Inhibition of trypsin (unknown origin) using Z-FR-MCA as substrate by spectrofluorimetric method; type: protein assay
[7] = target: Cruzipain (Trypanosoma cruzi, UniProt P25779); experiment: Inhibition of Trypanosoma cruzi cruzain (unknown origin) using Z-FR-MCA as substrate by spectrofluorimetric method
Chain of Cruzipain (P25779 whole entry): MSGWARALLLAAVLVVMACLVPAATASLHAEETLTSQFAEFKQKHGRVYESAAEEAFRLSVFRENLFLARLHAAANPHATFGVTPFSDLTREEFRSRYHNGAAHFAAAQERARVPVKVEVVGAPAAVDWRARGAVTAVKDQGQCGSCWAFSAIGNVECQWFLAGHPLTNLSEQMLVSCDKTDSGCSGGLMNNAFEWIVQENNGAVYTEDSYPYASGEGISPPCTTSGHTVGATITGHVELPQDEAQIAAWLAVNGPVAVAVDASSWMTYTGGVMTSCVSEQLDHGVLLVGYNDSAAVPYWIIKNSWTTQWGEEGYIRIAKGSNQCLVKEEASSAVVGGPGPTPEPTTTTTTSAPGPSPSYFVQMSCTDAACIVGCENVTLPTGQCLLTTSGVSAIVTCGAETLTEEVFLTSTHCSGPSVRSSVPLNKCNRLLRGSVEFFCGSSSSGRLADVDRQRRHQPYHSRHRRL

[8] = target: T1, Papain (Carica papaya, UniProt P00784); experiment: Inhibition of Papaya papain using Z-FR-MCA as substrate by spectrofluorimetric method
T1 sequence (P00784 whole entry): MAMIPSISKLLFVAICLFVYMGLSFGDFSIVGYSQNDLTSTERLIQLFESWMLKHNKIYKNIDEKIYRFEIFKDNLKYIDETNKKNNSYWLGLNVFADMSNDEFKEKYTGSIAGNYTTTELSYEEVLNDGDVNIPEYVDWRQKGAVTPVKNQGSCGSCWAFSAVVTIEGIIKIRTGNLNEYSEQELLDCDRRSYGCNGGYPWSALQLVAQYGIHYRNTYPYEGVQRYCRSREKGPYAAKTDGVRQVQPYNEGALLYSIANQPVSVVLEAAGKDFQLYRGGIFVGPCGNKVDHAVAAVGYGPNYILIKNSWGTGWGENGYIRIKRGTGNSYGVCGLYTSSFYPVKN

[9] = test system: HL-60; experiment: Antiproliferative activity against human HL60 cells assessed as reduction in cell viability after 3 days by trypan blue dye based hemocytometer counting method; type: functional; details: HL-60, 72 h
[10] = test system: A549; experiment: Antiproliferative activity against human A549 cells assessed as reduction in cell viability after 72 hrs by MTT assay; type: functional, cell-based; details: A549, 72 h
[11] = test system: SNB-19; experiment: Antiproliferative activity against human SNB19 cells; type: functional, cell-based
[12] = Antiproliferative activity against human KKU100 cells assessed as reduction in cell viability after 72 hrs by SRB assay; type: functional, cell-based; details: KKU100, 72 h
[13] = test system: P388; experiment: Antiproliferative activity against mouse P388 cells assessed as reduction in cell viability; type: functional, cell-based
[14] = test system: MCF7; experiment: Antiproliferative activity against human MCF7 assessed as reduction in cell viability incubated for 48 hrs by AlamarBlue assay; type: functional, cell-based; details: MCF7, 48 h
[15] = test system: HepG2; experiment: Antiproliferative activity against human HepG2 assessed as reduction in cell viability incubated for 48 hrs by AlamarBlue assay; type: functional, cell-based; details: HepG2, 48 h

Q: With `C=C1C(=O)O[C@@H]2C[C@@H](C)C3=CC(=O)[C@@](C)(C[C@H](OC(=O)/C(C)=C\C)[C@@H]12)O3` as the compound, how does the IC50 [1] read?
A: 560 nM

Q: With `CC(C)=CCc1c2c(c(O)c3c1O[C@]14C(=C[C@H]5C[C@@H]1C(C)(C)O[C@@]4(C/C=C(/C)C(=O)O)C5=O)C3=O)C=CC(C)(C)O2` as the compound, how does the IC50 [2] read?
A: 360 nM

Q: Which IC50 [2] does the source give for `CO[C@H]1[C@H]2C(=O)c3c(O)c4c(c(CC=C(C)C)c3O[C@@]23[C@@H]2C[C@H]1C(=O)[C@]3(C/C=C(/C)C(=O)O)OC2(C)C)OC(C)(C)C=C4` here?
A: 1900 nM

Q: With `CC(C)=CCC[C@@]1(C)C=Cc2c(O)c3c(c(C/C=C(\C)CO)c2O1)O[C@]12C(=C[C@H]4C[C@@H]1C(C)(C)O[C@@]2(C/C=C(/C)C(=O)O)C4=O)C3=O` as the compound, how does the IC50 [3] read?
A: 620 nM

Q: What does the source list for `COCOc1cc(O)c2c(c1)OC13C(=CC4CC1C(C)(C)OC3(C/C=C(\C)CO)C4=O)C2=O` (stereo not drawn)?
A: IC50 [4]: 2500 nM; IC50 [5]: 3800 nM

Q: With `C=C1C(=O)O[C@@H]2[C@@H](O)[C@@H](C)C3=CC(=O)[C@@](C)(C[C@H](OC(=O)/C(C)=C\C)[C@@H]12)O3` as the compound, how does the IC50 [1] read?
A: 6600 nM

Q: With `CC(=O)Oc1ccc(C2Oc3cc(OC(C)=O)cc(O)c3C(=O)C2c2c(OC(C)=O)cc(O)c3c(=O)cc(-c4ccc(OC(C)=O)c(OC(C)=O)c4)oc23)cc1` (racemic) as the compound, how does the IC50 [6] read?
A: 21100 nM

Q: And the IC50 [7]?
A: 537000 nM

Q: What about the IC50 [8] of the same compound?
A: 600 nM

Q: Which IC50 [4] does the source give for `COCOc1cc(O)c2c(c1)OC13C(=CC4CC1C(C)(C)OC3(C/C=C(\C)CBr)C4=O)C2=O` (stereo not drawn) here?
A: 960 nM

Q: And the IC50 [5]?
A: 1600 nM

Q: For `C=C(C)C(=O)O[C@H]1C[C@@]2(C)OC(=CC2=O)[C@H](C)[C@H](O)[C@H]2OC(=O)C(=C)[C@@H]21`, which IC50 [1] is on record?
A: 1900 nM

Q: Which IC50 [9] does the source give for `CO[C@@H]1[C@@H]2C[C@H]3C(C)(C)O[C@@](C/C=C(/C)C(=O)O)(C2=O)[C@]32Oc3c(CC=C(C)C)c4c(c(O)c3C(=O)[C@H]12)C=C[C@@](C)(CCC=C(C)C)O4` here?
A: 830 nM

Q: With `CC(C)=CCC/C(C)=C/Cc1c(O)c(CC=C(C)C)c2c(c1O)C(=O)C1=C[C@@H]3C[C@H]4C(C)(C)O[C@@](C/C=C(\C)C(=O)O)(C3=O)[C@@]14O2` as the compound, how does the IC50 [3] read?
A: 1400 nM

Q: For `COCOc1cc(O)c2c(c1)OC13C(=CC4CC1C(C)(C)OC3(C/C=C(\C)C=O)C4=O)C2=O` (stereo not drawn), which IC50 [4] is on record?
A: 1000 nM

Q: What about the IC50 [5] of the same compound?
A: 5000 nM

Q: With `COC[C@H]1O[C@@H](Oc2c3c(c(-c4ccc5c(c4)OCO5)c4cc(OC)c(OC)cc24)C(=O)OC3)[C@H](OC)[C@@H](OC)[C@@H]1OC` as the compound, how does the IC50 [10] read?
A: 50 nM

Q: With `COc1cc2c(O[C@@H]3OC[C@H](O)[C@H](O)[C@H]3OC)c3c(c(-c4ccc5c(c4)OCO5)c2cc1OC)C(=O)OC3` as the compound, how does the IC50 [2] read?
A: 19 nM

Q: Which IC50 [1] does the source give for `C=C1C(=O)O[C@@H]2C/C(C)=C\CC(=O)[C@](C)(OC(C)=O)C[C@H](OC(=O)/C(C)=C\C)[C@@H]12` here?
A: 4000 nM

Q: With `C=C1C(=O)O[C@@H]2/C=C(/C)C3=CC(=O)[C@@](C)(C[C@H](OC(=O)/C(C)=C\C)[C@@H]12)O3` as the compound, how does the IC50 [1] read?
A: 1400 nM

Q: What about the IC50 [11] of the same compound?
A: 13800 nM

Q: With `CC(C)=CCc1c(O)cc(O)c2c1O[C@]13C(=C[C@H]4C[C@@H]1C(C)(C)O[C@@]3(CC=C(C)C)C4=O)C2=O` as the compound, how does the IC50 [12] read?
A: 3500 nM

Q: For `COCOc1cc(O)c2c(c1)OC13C(=CC4CC1C(C)(C)OC3(C[C@H](O)C(C)(C)O)C4=O)C2=O` (stereo partly drawn), which IC50 [4] is on record?
A: 1700 nM

Q: And the IC50 [5]?
A: 860 nM

Q: With `C=C1C(=O)O[C@@H]2C[C@@H](C)[C@H](OC)CC(=O)[C@](C)(OC(C)=O)C[C@H](OC(=O)/C(C)=C\C)[C@@H]12` as the compound, how does the IC50 [1] read?
A: 1400 nM

Q: Which IC50 [1] does the source give for `C=C(C)C(=O)O[C@H]1C[C@@]2(C)OC(=CC2=O)C(=C)[C@H](O)[C@H]2OC(=O)C(=C)[C@@H]21` here?
A: 280 nM

Q: For `CC(C)=CCc1c(-c2cc(O)c(O)cc2O)oc2c3c(cc(O)c2c1=O)OC(C)(C)C=C3` [ARTONIN E], which IC50 [13] is on record?
A: 140 nM

Q: What does the source list for `COc1ccc(C2Oc3cc(OC)cc(O)c3C(=O)C2c2c(OC)cc(O)c3c(=O)cc(-c4ccc(OC)c(OC)c4)oc23)cc1` (racemic)?
A: IC50 [6]: 1600 nM; IC50 [7]: 235000 nM; IC50 [8]: 15400 nM

Q: For `C/C1=C\CC[C@@]2(C)O[C@H]2[C@H]2OC(=O)[C@@H](CNC(Cc3ccc(N(CCCl)CCCl)cc3)C(=O)O)[C@@H]2CC1` (stereo partly drawn), which IC50 [14] is on record?
A: 1800 nM

Q: What about the IC50 [15] of the same compound?
A: 260 nM
